Source: ChEMBL document CHEMBL1201862, “PubChem BioAssay data set” (2004)
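How tested: cells in 96-well plates exposed to compound for 48 hours at five concentrations. GI50: concentration for 50% inhibition of growth.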 The source made the active and inactive calls. No stated cut-off is given here; in the data, active = GI50 up to about 1.1 µM and inactive = higher.

Legend:
Assay in all cases: NCI-60 cell line screen, 48 h
SK-OV-3 = tested on: SK-OV-3
MDA-MB-435 = tested on: MDA-MB-435
SK-MEL-2 = tested on: SK-MEL-2
RPMI-8226 = tested on: RPMI-8226
EKVX = tested on: EKVX
SNB-75 = tested on: SNB-75
U-251 = tested on: U-251
ACHN = tested on: ACHN
TK-10 = tested on: TK-10
OVCAR-8 = tested on: OVCAR-8
NCI-H522 = tested on: NCI-H522
NCI-H460 = tested on: NCI-H460
SN12C = tested on: SN12C
K562 = tested on: K562
HCT-116 = tested on: HCT-116
MDA-MB-231 = tested on: MDA-MB-231
UACC-257 = tested on: UACC-257
HOP-62 = tested on: HOP-62
UACC-62 = tested on: UACC-62
NCI/ADR-RES = tested on: NCI/ADR-RES

| Structure (SMILES) | GI50 (SK-OV-3) | GI50 (MDA-MB-435) | GI50 (SK-MEL-2) | GI50 (RPMI-8226) | GI50 (EKVX) | GI50 (SNB-75) | GI50 (U-251) | GI50 (ACHN) | GI50 (TK-10) | GI50 (OVCAR-8) | GI50 (NCI-H522) | GI50 (NCI-H460) | GI50 (SN12C) | GI50 (K562) | GI50 (HCT-116) | GI50 (MDA-MB-231) | GI50 (UACC-257) | GI50 (HOP-62) | GI50 (UACC-62) | GI50 (NCI/ADR-RES) |
| --- | --- | --- | --- | --- | --- | --- | --- | --- | --- | --- | --- | --- | --- | --- | --- | --- | --- | --- | --- | --- |
| C=CC(C)(C)C(=C)C(=O)N(C)c1ccccc1I | > 100 µM (inactive) | > 100 µM (inactive) | > 100 µM (inactive) | > 100 µM (inactive) | > 100 µM (inactive) | > 100 µM (inactive) | > 100 µM (inactive) | > 100 µM (inactive) | > 100 µM (inactive) | > 100 µM (inactive) | > 100 µM (inactive) | > 100 µM (inactive) | > 100 µM (inactive) | > 100 µM (inactive) | 84.9 µM (inactive) | > 100 µM (inactive) | > 100 µM (inactive) | > 100 µM (inactive) | > 100 µM (inactive) | > 100 µM (inactive) |
| O=C(CC(=O)N1N=C(N(c2ccccc2)c2ccccc2)CC1c1ccccc1)Nc1cccc(Cl)c1 (centres undefined) | > 100 µM (inactive) | > 100 µM (inactive) | > 100 µM (inactive) | > 100 µM (inactive) | > 100 µM (inactive) | > 100 µM (inactive) | > 100 µM (inactive) | > 100 µM (inactive) | > 100 µM (inactive) | > 100 µM (inactive) | > 100 µM (inactive) | > 100 µM (inactive) | > 100 µM (inactive) | > 100 µM (inactive) | > 100 µM (inactive) | > 100 µM (inactive) | > 100 µM (inactive) | > 100 µM (inactive) | > 100 µM (inactive) | > 100 µM (inactive) |
| O=c1[nH]c2ccc(C(F)(F)F)cc2nc1C(F)(F)F | 27.1 µM (inactive) | 31.2 µM (inactive) | 15 µM (inactive) | 30.6 µM (inactive) | 29.2 µM (inactive) | 12.1 µM (inactive) | 35 µM (inactive) | 30.9 µM (inactive) | 27.9 µM (inactive) | 25.3 µM (inactive) | 17.5 µM (inactive) | 33.9 µM (inactive) | 29.4 µM (inactive) | 35.7 µM (inactive) | 20.9 µM (inactive) | 28.3 µM (inactive) | 23.6 µM (inactive) | 18.3 µM (inactive) | 27.9 µM (inactive) | 28.1 µM (inactive) |
| CN(CCc1ccccn1)C(=S)N/N=C/c1ccccn1 | 0.376 µM (active) | 0.678 µM (active) | 0.0168 µM (active) | < 0.01 µM (active) | 0.102 µM (active) | 7.5 µM (inactive) | – | 0.0366 µM (active) | 0.043 µM (active) | 0.0308 µM (active) | < 0.01 µM (active) | 0.299 µM (active) | 0.111 µM (active) | < 0.01 µM (active) | < 0.01 µM (active) | < 0.01 µM (active) | < 0.0213 µM (active) | 0.0336 µM (active) | 0.195 µM (active) | < 0.0201 µM (active) |
| COc1ccc2c(c1)N=C1CSC(c3cccc(Br)c3)N1C2 (centres undefined) | 21.3 µM (inactive) | 10.5 µM (inactive) | 17.6 µM (inactive) | 3.72 µM (inactive) | 13.2 µM (inactive) | 15.5 µM (inactive) | 17.5 µM (inactive) | 13.3 µM (inactive) | 16 µM (inactive) | 23.7 µM (inactive) | 14.4 µM (inactive) | 7.62 µM (inactive) | 19.5 µM (inactive) | 3.85 µM (inactive) | 10.8 µM (inactive) | 17.8 µM (inactive) | 10.5 µM (inactive) | 22.8 µM (inactive) | 15.2 µM (inactive) | 6.98 µM (inactive) |
| C=CCOC(=O)C[C@H](NC(=O)[C@H](Cc1ccc(O)cc1)NCC(F)(F)F)C(=O)OCC=C | > 100 µM (inactive) | 41.3 µM (inactive) | 21.3 µM (inactive) | 36.1 µM (inactive) | 25.5 µM (inactive) | 31.6 µM (inactive) | > 100 µM (inactive) | > 100 µM (inactive) | > 100 µM (inactive) | > 100 µM (inactive) | 25 µM (inactive) | 59.6 µM (inactive) | 45 µM (inactive) | 39.2 µM (inactive) | > 100 µM (inactive) | 72.9 µM (inactive) | 20.8 µM (inactive) | > 100 µM (inactive) | 40.7 µM (inactive) | > 100 µM (inactive) |
| CC(=O)c1csc2c1C(=O)c1ccccc1C2=O | 38.1 µM (inactive) | 0.9 µM (active) | 3.06 µM (inactive) | 5.65 µM (inactive) | 5.78 µM (inactive) | 1.73 µM (inactive) | 2.88 µM (inactive) | 2.02 µM (inactive) | 1.79 µM (inactive) | 2.51 µM (inactive) | 1.78 µM (inactive) | 1.48 µM (inactive) | 2.25 µM (inactive) | 3.92 µM (inactive) | 2.24 µM (inactive) | 6.76 µM (inactive) | 1.46 µM (inactive) | 1.97 µM (inactive) | 1.93 µM (inactive) | 2.88 µM (inactive) |
